In article PMC11849186 (BMC Biology, 2025):

Experiments:
[1] = biological target: T1, Pheromone binding protein 5 (Pbp5) (Bactrocera dorsalis, UniProt A0A6I9V7R6); test: direct fluorescence binding assay
T1 sequence (A0A6I9V7R6 21-147): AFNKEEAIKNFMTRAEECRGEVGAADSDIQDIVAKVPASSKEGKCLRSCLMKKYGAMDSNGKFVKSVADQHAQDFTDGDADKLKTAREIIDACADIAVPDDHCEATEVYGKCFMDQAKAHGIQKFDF

[2] = biological target: T2, Pheromone binding protein 5 (Pbp5) mutant (Bactrocera dorsalis, UniProt A0A6I9V7R6, F147A/F31A/F95A/I28A); test: direct fluorescence binding assay
T2 sequence (A0A6I9V7R6 21-147 I28A/F31A/F95A/F147A): T1 sequence (A0A6I9V7R6 21-147)

[3] = biological target: T1, Pheromone binding protein 5 (Pbp5); test: competitive fluorescence displacement of 1-NPN

Ki [3] [µM]	SMILES	Kd [1] [µM]	Kd [2] [µM]
–	c1ccc(Nc2cccc3ccccc23)cc1 [1-NPN, N-phenyl-1-naphthylamine]	10.6	33.9
0.21	Cc1nc(C)c(C)nc1C [TTMP, tetramethylpyrazine]	–	–
0.224	Cc1cnc(C)c(C)n1 [TMP, trimethylpyrazine]	–	–
